Assay [1] has as its target 11β-HSD1 (Homo sapiens, UniProt P28845). In words: 11β-HSD1 enzyme activity assay in cell lysates of transfected HEK-293 cells (HHH7 clone). Type of assay: biochemical. Details: expressed in transfected cells; host or cells: HEK-293 (HHH7 clone), used as cell lysate. The note with it: 200 nM cortisone, 450 μM NADPH, 10 min. As to the method: Stably transfected human embryonic kidney (HEK-293) cells expressing 11β-HSD1 and hexose-6-phosphate dehydrogenase (the so called HHH7 clone) were cultivated for 48 h in Dulbecco's modified Eagle medium (DMEM) containing 4.5 g/L glucose, 10% fetal bovine serum, 100 U/mL penicillin, 0.1 mg/mL streptomycin, 1×MEM nonessential amino acids, and 10 mM HEPES buffer, pH 7.4. The cells were then washed with phosphate-buffered saline, and centrifuged for 4 min at 150×g. After removal of the supernatants, cell pellets were snap frozen on dry ice and stored at −80° C. until further use.
Cell lysates were incubated for 10 min at 37° C. in TS2 buffer (100 mM NaCl, 1 mM EGTA, 1 mM EDTA, 1 mM MgCl2, 250 mM sucrose, 20 mM Tris-HCl, pH 7.4) in a final volume of 22.2 μL containing either solvent (0.1% DMSO) or the inhibitor at the respective concentration as indicated in Table 4 (see below).
The steroids were separated by TLC, using methanol-chloroform (1:9) as solvent, followed by scintillation counting and calculation of substrate concentration. Data were collected from four independent measurements (standard deviation<10%).

Assay [2] has as its system Human skin from abdominal plastic surgery. In words: Ex vivo: total dermal collagen after cortisone and cortisone/inhibitor treatment. The note with it: day 6; for Dermal collagen: cortisone/inhibitor treatment, topical daily, untreated set to 100%. It is filed as cell-based. As for the experimental part: Human skin from abdominal plastic surgery was used. The skin samples were cut in pieces of ˜8×3 mm (ø×thickness) and cultured up to day 6 in an air-liquid interface in a perforated ring of stainless steel in contact with a culture medium (modified Williams' E medium), while renewing the culture medium on day 3. Six skin specimens were used for each test sample. Each test sample (4 μl) was applied topically on top of each piece after cleaning of the surface with a cotton pad, which was subsequently covered with a 6 ø mm delivery membrane, this procedure was repeated daily. After 6 days skin sections were stained with Picrosirius Red histochemical staining, that dyes collagen fibers in purple-red. The papillary dermis was selected for the analysis. The different colors of the pictures were separated by using a deconvolution matrix. After deconvolution only pink-reddish images are used. Within these images the evaluation of dermal collagen was performed by estimating both color intensity and distribution with IMAGE J (NIH) analysis software. Two slides of each skin sample were processed by image acquisition and related analysis (i.e. 12 images for each treatment).

The source of these data is patent US10550097B2, “Selective 11-beta-hydroxysteroid dehydrogenase type 1 inhibitors” (DSM IP ASSETS B.V., priority 2015, dated 2020).

Chain of 11β-HSD1 (P28845 whole entry): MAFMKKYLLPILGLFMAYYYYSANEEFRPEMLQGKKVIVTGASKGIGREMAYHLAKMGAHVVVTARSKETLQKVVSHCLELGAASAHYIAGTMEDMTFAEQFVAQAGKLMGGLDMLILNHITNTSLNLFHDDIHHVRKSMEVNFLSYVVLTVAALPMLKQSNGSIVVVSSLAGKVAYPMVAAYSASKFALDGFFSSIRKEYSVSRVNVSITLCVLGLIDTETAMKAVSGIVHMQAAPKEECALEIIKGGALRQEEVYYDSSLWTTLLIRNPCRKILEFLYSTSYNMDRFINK

In the case of `Cc1ccc(-c2cccc(C(=O)N3CCC(C)CC3)c2)cc1` [II-f, (4′-methyl-[1,1′-biphenyl]-3-yl)(4-methylpiperidin-1-yl)methanone], the “11β-HSD1 Remaining activity [% of control]” value in assay [1] (inhibitor 1 μM) is listed as 2 % of control.
Regarding `Cc1ccc(-c2cccc(C(=O)N3CCC(C)CC3)c2)cc1F` [II-d, (3′-fluoro-4′-methyl-[1,1′-biphenyl]-3-yl)(4-methylpiperidin-1-yl)methanone], the “11β-HSD1 Remaining activity [% of control]” value in assay [1] (inhibitor 100 nM) is listed as 45 % of control.
As to `Cc1ccc(-c2cccc(C(=O)N3CC(C)OC(C)C3)c2)cc1` (centres unmarked) [III-c, (2,6-dimethylmorpholino) (4′-methyl-[1,1′-biphenyl]-3-yl)methanone], the “11β-HSD1 Remaining activity [% of control]” value in assay [1] (inhibitor 100 nM) is given as 60 % of control; in assay [1] (inhibitor 1 μM), 3 % of control.
For the compound `Cc1ccc(-c2cccc(C(=O)N3CCCCCC3)c2)cn1` [IV-e, azepan-1-yl(3-(6-methylpyridin-3-yl)phenyl)methanone], the “11β-HSD1 Remaining activity [% of control]” value in assay [1] (inhibitor 100 nM) was 31 % of control. Further, the Dermal collagen in assay [2] (10 μM in DMSO) is 103%; in assay [2] (100 μM in DMSO), 101%; in assay [2] (200 μM in DMSO), 96%. Further, the “Increase versus cortisone (#2)” value was “+34%” in assay [2] (10 μM in DMSO), “+31%” in assay [2] (100 μM in DMSO) and “+25%” in assay [2] (200 μM in DMSO).
